Test results as given in patent US10858364B2, “Imidazopyrazine inhibitors of Bruton's tyrosine kinase” (Acerta Pharma B.V., priority 2016, dated 2020).

Legend:
BTK = BTK (Homo sapiens (Human), UniProt Q06187); assay: BTK enzyme activity, IMAP assay; type: biochemical; conditions: 60 min pre-incubation, 5 μM ATP
Method: BTK enzyme activity is measured using the IMAP (immobilized metal ion affinity-based fluorescence polarization) assay as outlined below. BTK enzyme (His-BTK (Millipore catalog #14-552)), is diluted to 0.4 U/mL in KR buffer (10 mM Tris-HCl, 10 mM MgCl2, 0.01% Tween-20, 0.05% NaN3, 1 mM DTT, 2 mM MnCl2, pH 7.2). Serial dilutions log 10 from 2 mM to 63.2 nM of test compounds are made in 100% DMSO. The dilutions in DMSO are then diluted 50-fold in KR-buffer. Final compound concentration range in the assay ranged from 10 μM to 0.316 nM. The assay is performed as follows: 5 μL/well of test compound in KR buffer (final DMSO concentration in the assay is […]) is mixed with 5 µl/well of 0.4 U/mL BTK enzyme (final concentration in the assay is 0.1 U/mL). […] After 60 min incubation at room temperature in the dark the FP signal is read. Fluorescence at 535 nm is measured using parallel and perpendicular filters to determine differences in rotation due to binding of the phosphorylated substrate peptide to the beads. Values are calculated as percentage of the difference in readout (AmPi) of the controls with and without ATP. IC50 values are determined by curve fitting of the experimental results in Dotmatics.

anti-IgD-induced CD69 = assay: Human whole blood anti-IgD-induced CD69 assay; type: cell-based; conditions: B-cell, CD19+ B cells, 18h anti-IgD, read-out: hWB: anti-IgD-induced CD69 EC50
Method: WB assay: Forty-five μL blood was diluted 1:1 in RPMI+1% FBS and incubated with test compound, as described above. Blood cells were stimulated with 10 μg/mL mouse anti-human anti-IgD antibody (BD Biosciences, final concentration in assay 10 μg/mL) and incubated for 18h. Cells were stained with CD69-FITC, CD86-PE, and CD19-BV421 (BD Biosciences) for 15 minutes at room temperature, followed by RBCs lysis with FACS Lysing Solution (BD Biosciences). Cells were washed 3 times with 1 mL/well PBS+0.5% BSA, followed by flow cytometric analyses. Median fluorescence intensity values for CD69 were obtained from the CD19+B lymphocyte gate using FCSExpress analyses software (De Novo Software). EC50 values were determined by curve fitting of the experimental results using Dotmatics.
The potency of BTK inhibitors in primary B cells can be assessed in assays that evaluate functional changes after BCR-activation in the presence of inhibitor. Inhibition of specific phosphorylated epitopes on signaling proteins and more distal measures of BCR activation such as increased expression of CD86 (B7-2) and CD69 on the cell surface can be measured by flow cytometry (see Report R2013003A). In this study, effects of M27 on CD69 expression were assessed.

ITK = ITK (Homo sapiens (Human), UniProt Q08881); assay: ITK enzyme activity, IMAP assay; type: biochemical; conditions: 60 min pre-incubation, 5 μM ATP
Method: ITK enzyme activity is measured using the IMAP (immobilized metal ion affinity-based fluorescence polarization) assay as outlined below.
ITK enzyme (Millipore #14-660M) is diluted to 0.2 U/mL in KR buffer (10 mM Tris-HCl, 10 mM MgCl2, 0.01% Tween-20, 0.1% NaN3, 1 mM DTT, 2 mM MnCl2, pH 7.5)
Serial dilutions log 10 from 2 mM to 63.2 nM of test compounds are made in 100% DMSO. The dilutions in DMSO are then diluted 50-fold in KR-buffer. Final compound concentration range in the assay ranged from 10 μM to 0.316 nM.
The assay is performed as follows: 5 μL/well of test compound in KR buffer (final DMSO concentration in the assay is 1%) is mixed with 5 μL/well of 0.2 U/mL ITK enzyme (final concentration in the assay is 0.05 U/mL (8.4 nM)). Test compounds and ITK enzyme are pre-incubated 60 minutes at room temperature, before adding 5 μL/well of 200 nM Fluorescin labeled substrate peptide (Blk/Lyntide substrate # R8124, Molecular Devices) in KR-buffer. Final peptide substrate concentration in assay is 50 nM. The kinase assay is started by adding 5 μL/well of 20 μM ATP in KR-buffer (final ATP concentration is 5 μM ATP, Km ATP in ITK IMAP assay). […] IC50 values are determined by curve fitting of the experimental results in Dotmatics.

TXK = TXK (Homo sapiens (Human), UniProt P42681); assay: TXK Z'-LYTE kinase assay; type: biochemical; conditions: 1 h pre-incubation, Km ATP
Method: BMX, TXK, EGFR, ERBB2, ERBB4, JAK3, BLK kinase activity was measured using the Z′-LYTE assay at Thermo Fisher. A 10-point dose response (final concentration in assay ranged from 10 μM to 0.5 nM in 3-fold dilution per dilution step) was generated with 1 h incubation of the test compound with the kinase prior to initiation of the kinase reaction by the addition of ATP. ATP concentration in the assay was Km ATP for the different kinases. IC50 values are determined by curve fitting of the experimental results at Thermo Fisher.

Chain of BTK (Q06187 whole entry): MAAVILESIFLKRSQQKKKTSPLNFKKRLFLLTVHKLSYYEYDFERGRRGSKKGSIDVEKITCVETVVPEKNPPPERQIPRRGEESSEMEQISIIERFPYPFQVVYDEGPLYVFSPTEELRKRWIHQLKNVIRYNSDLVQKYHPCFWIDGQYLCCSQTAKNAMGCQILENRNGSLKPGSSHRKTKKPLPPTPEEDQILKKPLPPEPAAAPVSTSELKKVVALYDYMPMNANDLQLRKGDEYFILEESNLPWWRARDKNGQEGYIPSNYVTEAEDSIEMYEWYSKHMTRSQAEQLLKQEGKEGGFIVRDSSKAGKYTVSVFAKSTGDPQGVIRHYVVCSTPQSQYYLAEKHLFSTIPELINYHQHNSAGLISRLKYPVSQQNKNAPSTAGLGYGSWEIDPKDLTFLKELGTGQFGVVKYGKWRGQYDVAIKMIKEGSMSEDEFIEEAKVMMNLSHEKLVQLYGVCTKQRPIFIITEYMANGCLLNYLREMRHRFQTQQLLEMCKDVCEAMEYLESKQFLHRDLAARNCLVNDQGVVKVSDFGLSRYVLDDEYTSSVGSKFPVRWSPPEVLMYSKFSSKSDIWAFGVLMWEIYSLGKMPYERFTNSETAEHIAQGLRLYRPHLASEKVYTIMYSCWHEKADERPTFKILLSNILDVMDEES
Chain of ITK (Q08881 whole entry): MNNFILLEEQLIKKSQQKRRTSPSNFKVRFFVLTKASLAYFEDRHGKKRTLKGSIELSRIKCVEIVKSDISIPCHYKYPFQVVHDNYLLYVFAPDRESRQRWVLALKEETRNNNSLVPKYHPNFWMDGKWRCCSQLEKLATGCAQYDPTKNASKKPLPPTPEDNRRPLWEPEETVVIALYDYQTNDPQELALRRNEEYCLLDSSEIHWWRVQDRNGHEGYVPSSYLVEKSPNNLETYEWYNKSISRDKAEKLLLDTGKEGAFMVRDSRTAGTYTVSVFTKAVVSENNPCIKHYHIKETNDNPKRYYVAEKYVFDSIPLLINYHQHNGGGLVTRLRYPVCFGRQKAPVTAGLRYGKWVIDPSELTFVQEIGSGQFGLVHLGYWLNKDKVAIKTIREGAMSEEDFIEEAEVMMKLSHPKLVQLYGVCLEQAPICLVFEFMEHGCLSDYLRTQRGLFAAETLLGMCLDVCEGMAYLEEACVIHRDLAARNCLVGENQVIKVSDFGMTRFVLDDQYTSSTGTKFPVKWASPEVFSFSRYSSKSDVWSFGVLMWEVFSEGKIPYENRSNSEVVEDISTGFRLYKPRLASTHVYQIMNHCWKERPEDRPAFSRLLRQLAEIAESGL
Chain of TXK (P42681 whole entry): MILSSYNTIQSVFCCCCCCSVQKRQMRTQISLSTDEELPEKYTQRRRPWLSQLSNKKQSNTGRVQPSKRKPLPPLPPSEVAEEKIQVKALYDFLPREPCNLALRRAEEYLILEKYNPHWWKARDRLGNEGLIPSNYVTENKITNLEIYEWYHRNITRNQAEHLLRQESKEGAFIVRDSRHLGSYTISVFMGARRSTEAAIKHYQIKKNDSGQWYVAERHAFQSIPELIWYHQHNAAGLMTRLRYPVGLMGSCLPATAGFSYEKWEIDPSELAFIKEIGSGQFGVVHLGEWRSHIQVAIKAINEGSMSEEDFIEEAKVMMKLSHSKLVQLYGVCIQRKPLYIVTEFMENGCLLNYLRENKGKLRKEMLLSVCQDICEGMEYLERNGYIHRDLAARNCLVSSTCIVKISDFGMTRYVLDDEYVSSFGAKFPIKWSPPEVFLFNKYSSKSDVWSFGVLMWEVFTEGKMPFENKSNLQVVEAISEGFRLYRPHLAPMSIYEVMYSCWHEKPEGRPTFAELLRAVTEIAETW

SMILES | IC50 (BTK) | EC50 (anti-IgD-induced CD69) | IC50 (ITK) | IC50 (TXK)
CC#CC(=O)NCCCC(=O)c1nc(-c2ccc(C(=O)Nc3ccccn3)cc2)c2c(N)nccn12 [Formula (I), 4-(8-amino-3-(4-(but-2-ynamido)butanoyl)imidazo[1,5-a]pyrazin-1-yl)-N-(pyridin-2-yl)benzamide] | 0.005 ± 0.001 µM | 0.064 ± 0.006 µM | > 10 µM | 0.567 ± 0.174 µM
CC#CC(=O)NCCCC(=O)c1nc(-c2ccc(C(=O)Nc3ccccn3)c(OC)c2)c2c(N)nccn12 [Formula (II), 4-(8-amino-3-(4-(but-2-ynamido)butanoyl)imidazo[1,5-a]pyrazin-1-yl)-2-methoxy-N-(pyridin-2-yl)benzamide] | 0.0093 µM | 0.137 ± 0.036 µM | > 10 µM | 0.059 µM
